The conditions of series [1]: rcm bond, Hoveyda-Grubbs 1st generation catalyst, 1,2-dichloroethane, 70.0 °C.
Series [2] concerns HCV replicons (HCV type 1b, Huh-7 luc/neo cells). Put plainly: Replicon assay (Huh-Luc cells, luciferase read-out). It is filed as cell-based. To be noted: Hepatitis C virus, Huh-7, 72 h. An excerpt: The compounds of formula (I) were examined for activity in the inhibition of HCV RNA replication in a cellular assay. […] The cellular assay was based on a bicistronic expression construct, as described by Lohmann et al. (1999) Science vol. 285 pp. 110-113 with modifications described by Krieger et al. (2001) Journal of Virology 75: 4614-4624, in a multi-target screening strategy. In essence, the method was as follows.
The assay utilized the stably transfected cell line Huh-7 luc/neo (hereafter referred to as Huh-Luc). This cell line harbors an RNA encoding a bicistronic expression construct comprising the wild type NS3-NS5B regions of HCV type 1b translated from an Internal Ribosome Entry Site (IRES) from encephalomyocarditis virus (EMCV), preceded by a reporter portion (FfL-luciferase), and a selectable marker portion (neo^R, neomycine phosphotransferase). The construct is bordered by 5′ and 3′ NTRs (non-translated regions) from HCV type 1b. Continued culture of the replicon cells in the presence of G418 (neo^R) is dependent on the replication of the HCV RNA. The stably transfected replicon cells that express HCV RNA, which replicates autonomously and to high levels, encoding inter alia luciferase, are used for screening the antiviral compounds.
The replicon cells were plated in 384 well plates in the presence of the test and control compounds which were added in various concentrations. Following an incubation of three days, HCV replication was measured by assaying luciferase activity (using standard luciferase assay substrates and reagents and a Perkin Elmer ViewLux™ ultraHTS microplate imager). Replicon cells in the control cultures have high luciferase expression in the absence of any inhibitor. The inhibitory activity of the compound on luciferase activity was monitored on the Huh-Luc cells, enabling a doseresponse curve for each test compound.
(In antiviral work, replicon cells carry a viral genome segment that copies itself.)

Series [3] deals with T1, HCV NS3/4A protease complexes (full-length hepatitis C NS3 protease enzyme with NS4A cofactor) (Hepatitis C virus genotype 1a, UniProt P27958).
T1 construct: full-length hepatitis C NS3 protease enzyme
T1 sequence (P27958 1027-1657, one chain of several): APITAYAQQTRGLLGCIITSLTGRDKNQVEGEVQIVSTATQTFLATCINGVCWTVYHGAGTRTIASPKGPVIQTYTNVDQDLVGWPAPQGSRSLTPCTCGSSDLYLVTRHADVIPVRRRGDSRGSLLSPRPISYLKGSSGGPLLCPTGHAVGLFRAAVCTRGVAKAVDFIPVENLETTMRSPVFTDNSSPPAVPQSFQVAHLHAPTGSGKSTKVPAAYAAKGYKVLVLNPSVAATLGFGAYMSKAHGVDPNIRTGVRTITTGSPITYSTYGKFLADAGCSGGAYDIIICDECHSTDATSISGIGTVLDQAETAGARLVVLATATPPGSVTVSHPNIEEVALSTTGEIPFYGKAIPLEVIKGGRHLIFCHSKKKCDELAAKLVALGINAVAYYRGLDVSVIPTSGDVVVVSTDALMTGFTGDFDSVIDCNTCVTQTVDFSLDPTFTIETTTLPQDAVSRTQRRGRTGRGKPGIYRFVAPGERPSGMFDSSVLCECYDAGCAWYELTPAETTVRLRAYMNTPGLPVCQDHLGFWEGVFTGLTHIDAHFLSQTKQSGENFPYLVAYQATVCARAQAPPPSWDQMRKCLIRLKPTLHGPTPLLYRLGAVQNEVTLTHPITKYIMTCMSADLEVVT
In words: Inhibition assay (enzymatic assay, depsipeptide substrate hydrolysis). Particulars: enzyme 1 nM, 25 μM NS4A cofactor, 0.5 μM substrate, 30° C., pH 7.5, model for competitive inhibition. It is filed as biochemical. The procedure: [Landro, 1997 #Biochem 36 9340-9348]. […] The solutions were stored at −20° C. between measurements.
[Liu, 1999 Analytical Biochemistry 267 331-335].

Where [4] appears, read: Huh-Luc cells, incubation of three days, luciferase activity.

Read-outs that look alike come from different tables or passages of the source.

`CCOC(=O)C12CC1C=CCCCCN(C)C(=O)C1CC(Oc3nc(-c4nc(C5CC5)cs4)cc4cc(OC)ccc34)CC1C(=O)N2` (centres unmarked) displayed a ring closure, yield of all isomers in series [1] (from C=CCCCCN(C)C(=O)C1CC(Oc2nc(-c3nc(C4CC4)cs3)cc3cc(OC)ccc23)CC1C(=O)NC1(C(=O)OCC)CC1C=C, 0.8 mM, 12.0 h) of 85%.
With `CCOC(=O)C12CC1C=CCCCCN(C)C(=O)N1CC(OC(=O)c3ccc([N+](=O)[O-])cc3)CC1C(=O)N2` (centres unmarked), the ring closure, yield of all isomers in series [1] (from C=CCCCCN(C)C(=O)N1CC(OC(=O)c2ccc([N+](=O)[O-])cc2)CC1C(=O)NC1(C(=O)OCC)CC1C=C, 1.64 mM, 20.0 h) amounted to 51%.
In the case of `CCOC(=O)C12CC1C=CCCCCN(C)C(=O)N1CC(Oc3nc(Cl)cc4cc(OC)ccc34)CC1C(=O)N2` (centres unmarked), in series [1] (from C=CCCCCN(C)C(=O)N1CC(Oc2nc(Cl)cc3cc(OC)ccc23)CC1C(=O)NC1(C(=O)OCC)CC1C=C, 2.17 mM, 20.0 h), the ring closure, yield of all isomers came out at 58%.
`CCOC(=O)C12CC1C=CCCCCN(C)C(=O)N1CC(Oc3ncc(Br)c4cc(OC)ccc34)CC1C(=O)N2` (centres unmarked) yielded a ring closure, yield of all isomers in series [1] (from C=CCCCCN(C)C(=O)N1CC(Oc2ncc(Br)c3cc(OC)ccc23)CC1C(=O)NC1(C(=O)OCC)CC1C=C, 1.55 mM, 20.0 h) of 38%.
The EC50 is the midpoint of the concentration-response curve. The Ki is the equilibrium dissociation constant of an inhibitor or competing ligand from its target. Read a high Ki as a looser hold on the target. Consider `COc1ccc2c(O[C@@H]3C[C@H]4C(=O)N[C@]5(C(=O)NS(=O)(=O)C6CC6)C[C@H]5/C=C\CCCCN(C)C(=O)N4C3)nc(-c3ccccc3)cc2c1` [Compound 56, N-[17-(3-phenyl-6-methoxyisoquinolin-1-yloxy)-13-methyl-2,14-dioxo-3,13,15-triaza-tricyclo[13.3.0.0^4,6]octadec-7-ene-4-carbonyl](cyclopropyl) sulfonamide], for which the concentration for a half-maximal effect (EC50) in series [2] was 1030 nM. In addition, the affinity in series [3], expressed as Ki, was 1.1 nM.
Take `COc1ccc2c(O[C@@H]3C[C@H]4C(=O)N[C@]5(C(=O)O)C[C@H]5/C=C\CCCCN(C)C(=O)N4C3)nc(-c3ccc(OC(F)(F)F)cc3)cc2c1` [Compound 57, 17-(3-(4-trifluoromethoxyphenyl)-6-methoxyisoquinolin-1-yloxy)-13-methyl-2,14-dioxo-3,13,15-triaza-tricyclo[13.3.0.0^4,6]octadec-7-ene-4-carboxylic acid]: the EC50 in series [2] (setting [4]) stood at 8090 nM. Also, in series [3], the affinity corresponds to a Ki of 210 nM.
As to `COc1ccc2c(O[C@@H]3C[C@H]4C(=O)N[C@]5(C(=O)O)C[C@H]5/C=C\CCCCN(C)C(=O)N4C3)nc(-n3cccn3)cc2c1` [Compound 67, 17-(3-pyrazol-1-yl-6-methoxyisoquinolin-1-yloxy)-13-methyl-2,14-dioxo-3,13,15-triaza-tricyclo[13.3.0.0^4,6]octadec-7-ene-4-carboxylic acid], the EC50 in series [2] (setting [4]) was > 10000 nM. Further, the Ki in series [3] is > 1000 nM.
On to `COc1ccc2c(O[C@@H]3C[C@H]4C(=O)N[C@]5(C(=O)NS(=O)(=O)C6CC6)C[C@H]5/C=C\CCCCN(C)C(=O)N4C3)nc(-n3cccn3)cc2c1` [Compound 68, N-[17-(3-pyrazol-1-yl-6-methoxyisoquinolin-1-yloxy)-13-methyl-2,14-dioxo-3,13,15-triaza-tricyclo[13.3.0.0^4,6]octadec-7-ene-4-carbonyl](cyclopropyl)sulfonamide], for which, in series [2] (setting [4]), the concentration giving a half-maximal response (EC50) worked out at 165 nM. Moreover, in series [3], the Ki came to 2.5 nM.
`COc1ccc2c(O[C@@H]3C[C@H]4C(=O)N[C@]5(C(=O)NS(=O)(=O)C6CC6)C[C@H]5/C=C\CCCCN(C)C(=O)N4C3)nc(-c3nc(C(C)C)cs3)cc2c1` [Compound 70, N-[17-[3-(4-isopropylthiazol-2-yl)-6-methoxyisoquinolin-1-yloxy]-13-methyl-2,14-dioxo-3,13,15-triaza-tricyclo[13.3.0.0^4,6]octadec-7-ene-4-carbonyl](cyclopropyl)sulfonamide]: the EC50 in series [2] (setting [4]) amounted to 6730 nM. For the same compound, in series [3], the Ki stood at 33 nM.

For the origin of these results see patent US8012939B2 (Tibotec Pharmaceuticals Ltd. Co, priority 2005, dated 2011).
